In brackets after ≈: the same amount, converted by molar mass.
What was measured:
Type in all cases: cell-based
Pseudomonas BRK 12-4-4 = assay: In vitro minimal inhibitory concentration, Pseudomonas BRK 12-4-4; conditions: BRK1244
Entero Cloac. IM 11 = assay: In vitro minimal inhibitory concentration, Entero Cloac. IM 11
Staph UC76 = assay: In vitro minimal inhibitory concentration, Staph UC76
Klebs. Pneum. MGH 2 = assay: In vitro minimal inhibitory concentration, Klebs. Pneum. MGH 2
E. Coli. Vogel = assay: In vitro minimal inhibitory concentration, E. Coli. Vogel; conditions: Escherichia coli
Prot Vulg. = assay: In vitro minimal inhibitory concentration, Prot Vulg.
Pseudomonas UI 18 = assay: In vitro minimal inhibitory concentration, Pseudomonas UI 18; conditions: UI18
Pseudomonas #28 = assay: In vitro minimal inhibitory concentration, Pseudomonas #28; conditions: Pseudomonas #28; in vitro; read-out: Minimal Inhibitory Concentration
E. Coli. Brig = assay: In vitro minimal inhibitory concentration, E. Coli. Brig; conditions: Escherichia coli
Strep. fec. MGH 2 = assay: In vitro minimal inhibitory concentration, Strep. fec. MGH 2
Serr. Mar. IMM 16 = assay: In vitro minimal inhibitory concentration, Serr. Mar. IMM 16
Staph S 18713 = assay: In vitro minimal inhibitory concentration, Staph S 18713

Row | Structure (SMILES) | MIC (Pseudomonas BRK 12-4-4) [µg/mL] | MIC (Entero Cloac. IM 11) [µg/mL] | MIC (Staph UC76) [µg/mL] | MIC (Klebs. Pneum. MGH 2) [µg/mL] | MIC (E. Coli. Vogel) [µg/mL] | MIC (Prot Vulg.) [µg/mL] | MIC (Pseudomonas UI 18) [µg/mL] | MIC (Pseudomonas #28) [µg/mL] | MIC (E. Coli. Brig) [µg/mL] | MIC (Strep. fec. MGH 2) [µg/mL] | MIC (Serr. Mar. IMM 16) [µg/mL] | MIC (Staph S 18713) [µg/mL]
1 | CC(=O)NC(C)C(=O)Nc1ccc(-c2ccc(C(=O)N[C@@H](C(=O)NC3C(=O)N4C(C(=O)O)=C(COC(C)=O)CSC34)c3ccccc3)c(=O)[nH]2)cc1 (mixture of isomers) [Example 3, N-[6-[4-(N-Acetyl-DL-alanylamino)phenyl]-1,2-dihydro-2-oxonicotinyl]-7-[D-2-amino-2-phenylacetamido]-3-acetoxymethyl cephem-4-carboxylic acid] | 12.5 | 25 | 0.4 | 6.3 | 3.1 | 25 | 6.3 | 12.5 | 12.5 | 25 | 25 | 
2 | CC(=O)NC(C)C(=O)Nc1ccc(-c2ccc(C(=O)N[C@@H](C(=O)NC3C(=O)N4C(C(=O)O)=C(COC(N)=O)CSC34)c3ccccc3)c(=O)[nH]2)cc1 (mixture of isomers) [Example 10, N-[6-[4(N-Acetyl-DL-alanylamino)phenyl]-1,2-dihydro-2-oxonicotinyl]-7-[D-2-amino-2-phenylacetamido]-3-carbamoyloxymethyl-3-cephem-4-carboxylic acid] | 12.5 | 25 | 1.6 | 12.5 | 6.3 | 12.5 | 6.3 | 3.1 | 12.5 | 12.5 | > 50 | 3.1
3 | CC(=O)OCC1=C(C(=O)O)N2C(=O)C(NC(=O)[C@H](NC(=O)c3ccc(-c4ccc(NC(=O)C5CCCN5C(C)=O)cc4)[nH]c3=O)c3ccccc3)C2SC1 (mixture of isomers) [Example 17, N-[6-[4-(N-Acetyl-DL-prolylamino)phenyl]-1,2-dihydro-2-oxonicotinyl]-7-[D-2-amino-2-phenylacetamido]-3-acetoxymethyl-3-cephem-4-carboxylic acid] | 25 | 25 | 1.6 | 12.5 | 3.1 | 25 | 12.5 | 12.5 | 25 | 50 | 50 | 3.1
4 | CC(=O)NC(C)C(=O)Nc1ccc(-c2ccc(C(=O)N[C@@H](C(=O)NC3C(=O)N4C(C(=O)O)=C(CSc5nnnn5C)CSC34)c3ccccc3)c(=O)[nH]2)cc1 (mixture of isomers) [Example 18, N-[6-[4-(N-Acetyl-DL-alanylamino)phenyl]-1,2-dihydro-3-oxonicotinyl]-7-[D-2-amino-2-phenylacetamido]-3-[[(1-methyl-1H-tetrazol-5-yl)thio]methyl]-3-cephem-4-carboxylic acid] | 12.5 | 6.3 | 0.4 | 0.8 | 0.4 | 25 | 6.3 | 6.3 | 3.1 | 25 | 12.5 | 3.1
5 | CC(=O)NC(C)C(=O)Nc1ccc(-c2ccc(C(=O)N[C@@H](C(=O)NC3C(=O)N4C(C(=O)O)=C(CSc5nnc(C)s5)CSC34)c3ccccc3)c(=O)[nH]2)cc1 (mixture of isomers) [Example 22, N-[6-[4-(N-Acetyl-DL-alanylamino)phenyl]-1,2-dihydro-2-oxonicotinyl]-7-[D-2-amino-2-phenylacetamido]-3-[([4-methyl-1,3,4-thiadiazol-2-yl]thio)methyl]-3-cephem-4-carboxylic acid] | 12.5 | 12.5 | 0.4 | 3.1 | 1.6 | 12.5 | 12.5 | 12.5 | 6.3 | 12.5 | 25 | 6.3
6 | CC(=O)NCCCCC(NC(C)=O)C(=O)Nc1ccc(-c2ccc(C(=O)N[C@@H](C(=O)NC3C(=O)N4C(C(=O)O)=C(CSc5nnnn5C)CSC34)c3ccccc3)c(=O)[nH]2)cc1 (mixture of isomers) [Example 26, N-[6-[4-(N,N'-Diacetyl-DL-lysylamino)phenyl)-1,2-dihydro-2-oxonicotinyl]-7-[D-2-amino-2-phenylacetamido]3-[[(1-methyl-1H-tetrazol-5-yl)thio]methyl]-3-cephem-4-carboxylic acid] | 12.5 | 6.3 | 1.6 | 1.6 | 1.6 | 25 | 12.5 | 12.5 | 12.5 | 50 | 50 | 6.3
7 | CC(=O)NCCCCC(NC(C)=O)C(=O)Nc1ccc(-c2ccc(C(=O)N[C@@H](C(=O)NC3C(=O)N4C(C(=O)O)=C(COC(C)=O)CSC34)c3ccccc3)c(=O)[nH]2)cc1 (mixture of isomers) [Example 27, N-[6-[4-(N,N'-Diacetyl-DL-lysylamino)phenyl]-1,2-dihydro-2-oxonicotinyl]-7-[D-2-amino-2-phenylacetamido]-3-acetoxymethyl-3-cephem-4-carboxylic acid] | 12.5 | 12.5 | 1.6 | 6.3 | 3.1 | 50 | 6.3 | 3.1 | 25 | 25 | > 50 | 12.5
8 | CC(=O)N[C@H](C)C(=O)Nc1ccc(-c2ccc(C(=O)N[C@@H](C(=O)NC3C(=O)N4C(C(=O)O)=C(CSc5nnnn5CC(=O)O)CSC34)c3ccccc3)c(=O)[nH]2)cc1 (stereo partly drawn) [Example 1, N-[6-[4-(N-Acetyl-D-alanylamino)phenyl]-1,2-dihydro-2-oxonicotinyl]-7-[D-2-amino-2-phenylacetamido]-3-[[(1-carboxymethyl-1H-tetrazol-5-yl)thio]methyl]-3-cephem-4-carboxylic acid] | 12.5 (≈ 15 µM) | 3.1 (≈ 3.73 µM) | 3.1 (≈ 3.73 µM) | 3.1 (≈ 3.73 µM) | 0.4 (≈ 0.481 µM) | 3.1 (≈ 3.73 µM) | 6.3 (≈ 7.58 µM) | 6.3 (≈ 7.58 µM) | 6.3 (≈ 7.58 µM) | > 50 | 12.5 (≈ 15 µM) | 12.5 (≈ 15 µM)
9 | CC(=O)N[C@H](C)C(=O)Nc1ccc(-c2ccc(C(=O)N[C@@H](C(=O)NC3C(=O)N4C(C(=O)O)=C(COC(C)=O)CSC34)c3ccccc3)c(=O)[nH]2)cc1 (stereo partly drawn) [Example 4, N-[6-[4-(N-Acetyl-D-alanylamino)phenyl]-1,2-dihydro-2-oxonicotinyl]-7-[D-2-amino-2-phenylacetamido]-3-acetoxymethyl-3-cephem-4-carboxylic acid] | 12.5 (≈ 17.1 µM) | 12.5 (≈ 17.1 µM) | 0.8 (≈ 1.09 µM) | 6.3 (≈ 8.62 µM) | 3.1 (≈ 4.24 µM) | 25 (≈ 34.2 µM) | 6.3 (≈ 8.62 µM) | 6.3 (≈ 8.62 µM) | 12.5 (≈ 17.1 µM) | 25 (≈ 34.2 µM) | 50 (≈ 68.4 µM) | 
10 | CC(=O)N[C@@H](C)C(=O)Nc1ccc(-c2ccc(C(=O)N[C@@H](C(=O)NC3C(=O)N4C(C(=O)O)=C(CSc5nnnn5C)CSC34)c3ccccc3)c(=O)[nH]2)cc1 (stereo partly drawn) [Example 20, N-[6-[4-(N-Acetyl-L-alanylamino)phenyl]-1,2-dihydro-2-oxonicotinyl]7-[D-2-amino-2-phenylacetamido]-3-[[(1-methyl-1H-tetrazol-5-yl)thio]methyl]-3-cephem-4-carboxylic acid] | 12.5 (≈ 15.9 µM) | 6.3 (≈ 8.01 µM) | 1.6 (≈ 2.03 µM) | 1.6 (≈ 2.03 µM) | 1.6 (≈ 2.03 µM) | 12.5 (≈ 15.9 µM) | 12.5 (≈ 15.9 µM) | 12.5 (≈ 15.9 µM) | 6.3 (≈ 8.01 µM) | 25 (≈ 31.8 µM) | 25 (≈ 31.8 µM) | 
11 | CC(=O)N[C@@H](CCC(N)=O)C(=O)Nc1ccc(-c2ccc(C(=O)N[C@@H](C(=O)NC3C(=O)N4C(C(=O)O)=C(CSc5nnnn5CC(=O)O)CSC34)c3ccccc3)c(=O)[nH]2)cc1 (stereo partly drawn) [Example 21, N-[6-[4-(N-Acetyl-L-glutaminylamino)phenyl]-1,2-dihydro-2-oxonicotinyl]-7-[D-2-amino-2-phenylacetamido]-3-[[(1-carboxymethyl-1H-tetrazol-5-yl)thio]methyl]-3-cephem-4-carboxylic acid] | 12.5 (≈ 14.1 µM) | 6.3 (≈ 7.1 µM) | 6.3 (≈ 7.1 µM) | 3.1 (≈ 3.49 µM) | 3.1 (≈ 3.49 µM) | 3.1 (≈ 3.49 µM) | 6.3 (≈ 7.1 µM) | 6.3 (≈ 7.1 µM) | 3.1 (≈ 3.49 µM) | 50 (≈ 56.3 µM) | 12.5 (≈ 14.1 µM) | 
12 | CC(=O)N[C@H](C)C(=O)Nc1ccc(-c2ccc(C(=O)N[C@@H](C(=O)NC3C(=O)N4C(C(=O)O)=C(COC(N)=O)CSC34)c3ccccc3)c(=O)[nH]2)cc1 (stereo partly drawn) [Example 24, N-[6-[4(N-Acetyl-D-alanylamino)phenyl]-1,2-dihydro-2-oxonicotinyl]-7-[D-2-amino-phenylacetamido]-3-carbamoyloxymethyl-3-cephem-4-carboxylic acid] | 12.5 (≈ 17.1 µM) | 25 (≈ 34.2 µM) | 0.4 (≈ 0.547 µM) | 12.5 (≈ 17.1 µM) | 6.3 (≈ 8.61 µM) | 12.5 (≈ 17.1 µM) | 12.5 (≈ 17.1 µM) | 12.5 (≈ 17.1 µM) | 25 (≈ 34.2 µM) | 25 (≈ 34.2 µM) | > 50 | 
13 | CC(=O)N[C@H](CCC(N)=O)C(=O)Nc1ccc(-c2ccc(C(=O)N[C@@H](C(=O)NC3C(=O)N4C(C(=O)O)=C(CSc5nnnn5CC(=O)O)CSC34)c3ccccc3)c(=O)[nH]2)cc1 (stereo partly drawn) [Example 37, N-[6-[4-(N-Acetyl-D-glutaminylamino)phenyl]-1,2-dihydro-2-oxonicotinyl]-7-[D-2-amino-2-phenylacetamido]-3-[[(1-carboxymethyl-1H-tetrazol-5-yl)thio]methyl]-3-cephem-4-carboxylic acid] | 12.5 (≈ 14.1 µM) | 6.3 (≈ 7.1 µM) | 6.3 (≈ 7.1 µM) | 3.1 (≈ 3.49 µM) | 0.8 (≈ 0.901 µM) | 3.1 (≈ 3.49 µM) | 12.5 (≈ 14.1 µM) | 6.3 (≈ 7.1 µM) | 6.3 (≈ 7.1 µM) | > 50 | 12.5 (≈ 14.1 µM) | 
